According to patent US10537541B2, “Treatment of focal segmental glomerular sclerosis (FSGS) using therapeutically effective oral doses of 10-nitro-9(E)-octadec-9-enoic acid” (Complexa, Inc., priority 2015, dated 2020):

Columns and labels:
[1] = test system: deoxycorticosterone acetate (DOCA)/salt-induced model of FSGS; assay: DOCA salt study: serum and urine analyses; format: in vivo, mice (129/sv strain); conditions: DOCA/salt mice; for reduction in albuminuria: 2.5 mg/kg p.o. QD
Method: Induction of model: Male mice (129/sv strain) were purchased from Taconic Labs. The animals were uninephrectomized (Unx) at 6 weeks of age by the vendor and shipped one week after surgery. At 2 weeks post Unx, a DOCA or placebo pellet (21-day release pellets, 50 mg/pellet, Innovative Research of America, Sarasota, Fla.) was implanted s.c. All mice were then placed on a semisynthetic diet which contained a moderate fat content and a low phytoestrogen/anti-oxidant level, which approximates a normal human diet (4). A second DOCA or placebo pellet was implanted three weeks later. […] One percent NaCl in tap water was given to each group except the sham control group. Body weight was measured weekly, and doses were readjusted based on the current body weight. Urine and blood samples were collected prior to treatment and at week 2 and 4 of treatment. Mice were terminated at week 4. Data is presented as the mean+SEM for the number of animals listed in each group. Serum and urine analyses: Blood samples were collected from the retro-orbital sinus and samples were separated to serum. Serum and urine creatinine (enzymatic assay), blood urea nitrogen (BUN), and serum cholesterol were measured using a Cobas 400 plus bioanalyzer (Roche Diagnostics, IN). Urine samples were collected for 24 h using metabolic cages. Urine albumin was measured by immunoassay Albuwell M (Exocell Inc., Philadelphia, Pa.). Immuno-ELISA according to manufacturer's instructions was used to measure urine nephrin (Exocell Inc., Philadelphia, Pa.) and MCP-1 (Thermal Scientific, Waltham, Mass.). Kim-1 was measured using the E-90KIM Mouse ELISA Kit (Immunology Consultants Laboratory, Portland, Oreg.). Statistical analyses for serum and urine data was performed using a two-tailed Student's t-test.

healthy male subjects = assay: Pharmacokinetic interaction study in healthy males: safety and tolerability; format: in vivo, human; conditions: healthy males
Method: Safety and tolerability was evaluated throughout the study. The timing of discharge was determined by the Investigator or designee based on safety and tolerability assessment. On dosing days, subjects remained in the research unit for a minimum of 1 h after dosing prior to discharge. On Day 4, on the first day of 10-nitro-9(E)-octadec-9-enoic acid dosing, subjects remained in the unit for 4 to 6 h after dosing prior to discharge to assess safety and tolerability.
Safety and PK assessments were evaluated throughout the study. During the in-house portion of the study, urine was collected over the 24-h period on Day 2 and Day 12.
Safety was evaluated by physical examinations; adverse events (AEs); vital signs (blood pressure, heart rate, respiratory rate); clinical laboratory values (hematology, biochemistry, and urinalysis), specifically, serum Mg and CPK and electrocardiograms (ECGs).
Triplicate ECGs were obtained just prior to the start of dosing on Day 1 and single ECGs were obtained at all other time points. The average of the 3 ECG interval measurements at the pre-dose time point was considered as baseline. All 12-Lead ECGs were obtained after the subject has rested in a fully supine position for at least 10 minutes. There were no clinically significant abnormalities reported on any electrocardiogram (ECG) parameter. There were no QT/QTcF interval prolongations observed during the study.

obese male subjects = assay: Multiple ascending dose study in obese males: safety and tolerability; format: in vivo, human; conditions: for GI adverse events, number (percentage) of subjects / General Disorders adverse events, number (percentage) of subjects / Muscle and CT disorders adverse events, number (percentage) of subjects / Nervous System adverse events, number (percentage) of subjects / Skin and SQ disorders adverse events, number (percentage) of subjects: n = 10
Excerpt: The primary endpoints of this study included safety and tolerability, pharmacokinetics, and biomarkers. The safety and tolerability included physical examinations, adverse event (AE) reporting, vital signs (blood pressure, heart rate, respiratory rate), clinical laboratory values (hematology, biochemistry, and urinalysis) including serum magnesium and creatine phosphokinase (CPK), 12-lead electrocardiograms (ECGs) for safety assessments and QTcF measured on ECGs extracted from cardiac Holter monitoring. The pharmacokinetic measurements included maximum observed plasma drug concentration (Cmax), time to maximum plasma drug concentration (Tmax), terminal phase half-life (t½), area under the plasma drug concentration versus time curve (AUC0-last, AUC0-∞), clearance (CL/F), volume of distribution (Vd/F) and terminal elimination rate constant (λz).
This was a single-center, randomized, double-blind, placebo-controlled study of sequential multiple ascending doses of oral CXA-10 in obese male subjects. Eligible subjects included obese males age 19 to 57 years and BMI 27.0 to 39.5 kg/m^2. CXA-10 and placebo were provided as solutions in hard shell capsules. Three (3) cohorts of subjects were dosed once daily with CXA-10 for 14 days. The doses administered in this study were 25, 150 and 450 mg. Subjects enrolled in the highest dose level (450 mg) were administered 600 mg on day 1 then 450 mg for 13 days. This cohort (cohort 3) was given the option to receive an additional 450 mg dose on day 15 with a high fat (50%) breakfast.
Each cohort of subjects was randomized to receive CXA-10 (10 subjects) or placebo (4 or 5 subjects). Safety, pharmacokinetic (PK) and pharmacodynamic (PD) assessments were evaluated throughout the study. The last study visit occurred on Day 28. All subjects remained in the unit during the treatment period and were discharged approximately 24 hours after the last dose was administered. Food restrictions were incorporated to minimize variability in biomarker evaluation and body weight.
Subjects remained at the unit until discharge on Day 15 after assessments were completed and reviewed. […] They remained in the unit until Day 16 (24 h after last dose on Day 15) before being discharged from the unit. The additional procedures on Day 15 and Day 16 were optional for subjects in cohort 3.
Safety and tolerability was evaluated throughout the study. Continuous Holter monitoring was performed on Days −1 and on Day 14 in all three cohorts. Continuous Holter monitoring could also be performed at highest dose cohort on an additional day between Days 2 and 4. The decision to conduct Holter monitoring and the actual day of the additional monitoring was determined based on emerging data.

[2] = low dose 2.5 mg/kg p.o. QD, 4 weeks
[3] = lower dose 2.5 mg/kg p.o. QD, 4 weeks
[4] = Cohort 1, 25 mg once daily 14 days
[5] = Cohort 2, 150 mg once daily 14 days
[6] = Cohort 3, 450 mg once daily (600 mg on day 1)
[7] = obese males, 25-450 mg once daily

CCCCCCCC/C(=C\CCCCCCCC(=O)O)[N+](=O)[O-] [CXA-10, 10-nitro-9(E)-octadec-9-enoic acid] was tested, and the reduction in albuminuria ([1]; week 2 post-dosing) was 49%, the reduction in albuminuria ([1]; week 4 post-dosing) was 34% and the albuminuria ([1]; high dose 12.5 mg/kg p.o. QD) was “had an effect initially but it was not sustained”. The “urinary MCP-1 excretion” value ([1]; high dose 12.5 mg/kg p.o. QD, 4 weeks) was “had no effect”, the plasma cholesterol [1, 2] was “reduced” and the “urinary MCP-1 excretion” value [1, 2] was “significantly reduced”. The albumin excretion [1, 3] was “markedly reduced”, the urinary nephrin levels [1, 3] was “markedly reduced” and the “GI AEs related to 10-nitro-9(E)-octadec-9-enoic acid” value (healthy male subjects; 150 mg daily with food) was “not observed”. For the same molecule, the serum creatinine levels (healthy male subjects; 150 mg daily) was “no changes”, the “24-hour urine creatinine excretion measurements” value (healthy male subjects; 150 mg daily, Day 2 versus Day 12) was “nor any relevant changes” and the “HBG, HCT and RBC concentration during treatment compared to placebo treated subjects” value (obese male subjects; 450 mg) was “slight decrease”. For the same molecule, the “GI related AEs: subjects with nausea” value (obese male subjects; Cohort 1 (25 mg)) was 1 subject had nausea subjects, the “GI adverse events, number (percentage) of subjects” value (obese male subjects; [4]) was 2 (20%) and the “General Disorders adverse events, number (percentage) of subjects” value (obese male subjects; [4]) was 1 (10%). For the same molecule, the “Muscle and CT disorders adverse events, number (percentage) of subjects” value (obese male subjects; [4]) was 2 (20%), the “Nervous System adverse events, number (percentage) of subjects” value (obese male subjects; [4]) was 0 (0%) and the “Skin and SQ disorders adverse events, number (percentage) of subjects” value (obese male subjects; [4]) was 2 (20%). The “GI related AEs: subjects with diarrhea” value (obese male subjects; Cohort 2 (150 mg)) was 5 subjects had diarrhea: 1 subject had diarrhea ~2 hr, the “GI adverse events, number (percentage) of subjects” value (obese male subjects; [5]) was 5 (50%) and the “General Disorders adverse events, number (percentage) of subjects” value (obese male subjects; [5]) was 0 (0%). The “Muscle and CT disorders adverse events, number (percentage) of subjects” value (obese male subjects; [5]) was 0 (0%), the “Nervous System adverse events, number (percentage) of subjects” value (obese male subjects; [5]) was 1 (10%) and the “Skin and SQ disorders adverse events, number (percentage) of subjects” value (obese male subjects; [5]) was 0 (0%). For the same molecule, the “GI related AEs: subjects with diarrhea” value (obese male subjects; Cohort 3 (450 mg w food)) was 3 subjects, the “GI related AEs: subjects with nausea” value (obese male subjects; Cohort 3 (450 mg w food)) was 1 subjects and the “GI related AEs: subjects with diarrhea” value (obese male subjects; Cohort 3 (450 mg)) was 9 subjects. For the same molecule, the “GI related AEs: subjects with nausea” value (obese male subjects; Cohort 3 (450 mg)) was 4 subjects, the “GI adverse events, number (percentage) of subjects” value (obese male subjects; [6]) was 9 (90%) and the “General Disorders adverse events, number (percentage) of subjects” value (obese male subjects; [6]) was 3 (30%). The “Muscle and CT disorders adverse events, number (percentage) of subjects” value (obese male subjects; [6]) was 2 (20%), the “Nervous System adverse events, number (percentage) of subjects” value (obese male subjects; [6]) was 4 (40%) and the “Skin and SQ disorders adverse events, number (percentage) of subjects” value (obese male subjects; [6]) was 1 (10%). The “CPK (muscle enzyme) or magnesium serum levels” value (obese male subjects; [7]) was “no abnormalities”, the “QTc interval (routine ECG after dosing for 15 days; ECG extraction from continuous 24-hour Holter monitoring)” value (obese male subjects; [7]) was “no prolongation of QTc interval” and the “clinical laboratory, vital signs or ECG evaluations” value (obese male subjects; [7]) was “no clinically significant findings”. For the same molecule, the “time to resolution of diarrhea” value (obese male subjects; obese males, oral once daily) was ≤ 4 h and the “intensity of diarrhea (grade)” value (obese male subjects; obese males, did not worsen with increasing dose) was “grade 1 or 2”.
